The term inhibition denotes the drop in the measured response relative to a control, in per cent.

Where two headings read alike, the source gives them in different places.

Common to all, as to experiment: SelectScreen Kinase Profiling, single point inhibition and IC50 for off-target kinases
Holding throughout (assay type): biochemical

Test [1] has as its target off-target kinases (Homo sapiens, UniProt P23443). To be noted: RPS6KB1 (p70S6K), ZLYTE, ATP Km app.
The target in test [2] is off-target kinases (Homo sapiens, UniProt P17948). The note with it: FLT1 (VEGFR1), ZLYTE, ATP Km app.
The target in test [3] is T1, off-target kinases (Homo sapiens, UniProt Q9Y2U5).
T1 sequence (Q9Y2U5 1-619): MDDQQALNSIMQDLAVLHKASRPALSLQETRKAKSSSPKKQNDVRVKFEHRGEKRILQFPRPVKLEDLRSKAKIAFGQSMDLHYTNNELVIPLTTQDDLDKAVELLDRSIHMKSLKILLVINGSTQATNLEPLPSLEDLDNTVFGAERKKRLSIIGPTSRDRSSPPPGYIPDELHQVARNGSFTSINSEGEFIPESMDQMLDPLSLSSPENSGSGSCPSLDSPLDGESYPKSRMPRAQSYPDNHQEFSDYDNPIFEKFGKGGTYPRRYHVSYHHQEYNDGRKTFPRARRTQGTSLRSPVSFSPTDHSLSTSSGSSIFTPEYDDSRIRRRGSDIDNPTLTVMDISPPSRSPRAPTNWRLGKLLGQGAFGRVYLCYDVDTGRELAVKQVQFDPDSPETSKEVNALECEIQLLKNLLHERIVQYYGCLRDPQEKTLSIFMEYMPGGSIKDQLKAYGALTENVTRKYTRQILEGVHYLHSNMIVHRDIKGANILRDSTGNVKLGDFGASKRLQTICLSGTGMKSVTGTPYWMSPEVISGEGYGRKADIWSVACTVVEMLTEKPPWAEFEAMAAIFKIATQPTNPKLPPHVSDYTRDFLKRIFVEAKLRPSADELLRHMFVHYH
The note with it: MAP3K2 (MEKK2), LanthaScreen Binding. (In TR-FRET formats the signal depends on donor and acceptor labels being close together.)

Test [4] concerns the target off-target kinases (Homo sapiens, UniProt Q02763). To be noted: TEK (Tie2), ZLYTE, ATP Km app.
Test [5] deals with T2, off-target kinases (Homo sapiens, UniProt O14965).
T2 sequence (O14965 1-403): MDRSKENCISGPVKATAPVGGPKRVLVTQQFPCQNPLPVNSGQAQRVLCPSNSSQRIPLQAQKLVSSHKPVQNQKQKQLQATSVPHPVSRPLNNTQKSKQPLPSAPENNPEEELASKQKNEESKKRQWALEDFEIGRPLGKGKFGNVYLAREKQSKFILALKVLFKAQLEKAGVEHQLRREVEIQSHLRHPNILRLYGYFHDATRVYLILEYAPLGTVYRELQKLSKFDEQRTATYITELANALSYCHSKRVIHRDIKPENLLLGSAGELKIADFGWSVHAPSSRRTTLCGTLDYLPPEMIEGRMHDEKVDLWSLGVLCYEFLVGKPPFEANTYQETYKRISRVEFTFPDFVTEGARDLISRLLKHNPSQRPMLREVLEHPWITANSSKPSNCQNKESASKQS
To be noted: AURKA (Aurora A), ATP Km app, ZLYTE.

Test [6] deals with off-target kinases (Homo sapiens, UniProt P00519, H396P). To be noted: ABL1 H396P, LanthaScreen Binding.
In test [7] the target is off-target kinases (Homo sapiens, UniProt Q86UE8). The note with it: TLK2, LanthaScreen Binding.
Chain of off-target kinases (Homo sapiens, UniProt Q86UE8) (Q86UE8 whole entry): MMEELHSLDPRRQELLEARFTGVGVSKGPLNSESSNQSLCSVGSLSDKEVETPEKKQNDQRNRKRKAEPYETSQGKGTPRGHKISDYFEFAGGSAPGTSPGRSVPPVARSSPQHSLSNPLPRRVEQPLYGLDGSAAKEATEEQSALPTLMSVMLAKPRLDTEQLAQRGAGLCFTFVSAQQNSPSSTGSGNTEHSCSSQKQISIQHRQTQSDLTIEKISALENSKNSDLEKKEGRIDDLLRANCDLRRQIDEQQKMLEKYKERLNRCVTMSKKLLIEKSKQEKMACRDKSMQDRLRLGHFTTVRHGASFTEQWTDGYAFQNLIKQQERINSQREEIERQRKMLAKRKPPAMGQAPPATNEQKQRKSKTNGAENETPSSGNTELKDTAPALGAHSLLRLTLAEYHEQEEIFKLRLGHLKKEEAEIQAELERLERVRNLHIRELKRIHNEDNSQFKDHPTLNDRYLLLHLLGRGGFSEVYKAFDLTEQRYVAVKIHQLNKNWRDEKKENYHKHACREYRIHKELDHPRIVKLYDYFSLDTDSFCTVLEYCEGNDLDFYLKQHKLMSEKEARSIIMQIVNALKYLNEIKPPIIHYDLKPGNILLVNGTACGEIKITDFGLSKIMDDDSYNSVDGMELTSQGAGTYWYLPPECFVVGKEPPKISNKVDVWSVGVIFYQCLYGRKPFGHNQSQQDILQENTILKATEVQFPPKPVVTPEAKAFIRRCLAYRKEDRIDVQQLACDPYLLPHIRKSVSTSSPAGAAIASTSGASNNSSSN

Chain of off-target kinases (Homo sapiens, UniProt Q02763) (Q02763 23-1124): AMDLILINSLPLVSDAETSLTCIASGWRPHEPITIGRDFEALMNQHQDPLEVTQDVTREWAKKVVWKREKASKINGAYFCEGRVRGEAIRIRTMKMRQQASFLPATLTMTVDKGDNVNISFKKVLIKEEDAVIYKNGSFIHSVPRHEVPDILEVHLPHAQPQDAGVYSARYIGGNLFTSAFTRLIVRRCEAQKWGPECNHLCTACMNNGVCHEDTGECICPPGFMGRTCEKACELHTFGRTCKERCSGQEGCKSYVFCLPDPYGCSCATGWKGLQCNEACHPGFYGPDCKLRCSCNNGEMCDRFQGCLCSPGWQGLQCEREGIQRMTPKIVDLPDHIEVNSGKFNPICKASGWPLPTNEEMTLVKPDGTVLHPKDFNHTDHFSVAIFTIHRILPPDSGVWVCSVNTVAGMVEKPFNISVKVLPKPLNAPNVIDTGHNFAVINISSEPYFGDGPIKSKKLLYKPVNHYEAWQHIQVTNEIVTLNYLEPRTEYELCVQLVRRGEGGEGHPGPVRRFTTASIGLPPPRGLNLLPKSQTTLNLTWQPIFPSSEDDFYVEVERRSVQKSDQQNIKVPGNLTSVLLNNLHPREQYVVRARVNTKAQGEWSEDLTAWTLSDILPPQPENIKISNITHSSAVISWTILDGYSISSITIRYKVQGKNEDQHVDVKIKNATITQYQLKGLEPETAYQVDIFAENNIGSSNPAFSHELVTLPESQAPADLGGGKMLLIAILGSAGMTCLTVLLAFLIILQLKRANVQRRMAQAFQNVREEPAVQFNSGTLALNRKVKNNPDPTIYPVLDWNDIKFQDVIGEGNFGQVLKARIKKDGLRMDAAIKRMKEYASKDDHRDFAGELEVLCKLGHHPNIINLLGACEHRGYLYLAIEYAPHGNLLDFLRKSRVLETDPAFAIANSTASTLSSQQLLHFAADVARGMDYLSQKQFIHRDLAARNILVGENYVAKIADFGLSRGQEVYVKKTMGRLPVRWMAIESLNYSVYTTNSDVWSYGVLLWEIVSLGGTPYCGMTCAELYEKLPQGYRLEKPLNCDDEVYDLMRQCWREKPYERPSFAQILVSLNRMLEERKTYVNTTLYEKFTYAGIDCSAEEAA
Chain of off-target kinases (Homo sapiens, UniProt P17948) (P17948 27-1338): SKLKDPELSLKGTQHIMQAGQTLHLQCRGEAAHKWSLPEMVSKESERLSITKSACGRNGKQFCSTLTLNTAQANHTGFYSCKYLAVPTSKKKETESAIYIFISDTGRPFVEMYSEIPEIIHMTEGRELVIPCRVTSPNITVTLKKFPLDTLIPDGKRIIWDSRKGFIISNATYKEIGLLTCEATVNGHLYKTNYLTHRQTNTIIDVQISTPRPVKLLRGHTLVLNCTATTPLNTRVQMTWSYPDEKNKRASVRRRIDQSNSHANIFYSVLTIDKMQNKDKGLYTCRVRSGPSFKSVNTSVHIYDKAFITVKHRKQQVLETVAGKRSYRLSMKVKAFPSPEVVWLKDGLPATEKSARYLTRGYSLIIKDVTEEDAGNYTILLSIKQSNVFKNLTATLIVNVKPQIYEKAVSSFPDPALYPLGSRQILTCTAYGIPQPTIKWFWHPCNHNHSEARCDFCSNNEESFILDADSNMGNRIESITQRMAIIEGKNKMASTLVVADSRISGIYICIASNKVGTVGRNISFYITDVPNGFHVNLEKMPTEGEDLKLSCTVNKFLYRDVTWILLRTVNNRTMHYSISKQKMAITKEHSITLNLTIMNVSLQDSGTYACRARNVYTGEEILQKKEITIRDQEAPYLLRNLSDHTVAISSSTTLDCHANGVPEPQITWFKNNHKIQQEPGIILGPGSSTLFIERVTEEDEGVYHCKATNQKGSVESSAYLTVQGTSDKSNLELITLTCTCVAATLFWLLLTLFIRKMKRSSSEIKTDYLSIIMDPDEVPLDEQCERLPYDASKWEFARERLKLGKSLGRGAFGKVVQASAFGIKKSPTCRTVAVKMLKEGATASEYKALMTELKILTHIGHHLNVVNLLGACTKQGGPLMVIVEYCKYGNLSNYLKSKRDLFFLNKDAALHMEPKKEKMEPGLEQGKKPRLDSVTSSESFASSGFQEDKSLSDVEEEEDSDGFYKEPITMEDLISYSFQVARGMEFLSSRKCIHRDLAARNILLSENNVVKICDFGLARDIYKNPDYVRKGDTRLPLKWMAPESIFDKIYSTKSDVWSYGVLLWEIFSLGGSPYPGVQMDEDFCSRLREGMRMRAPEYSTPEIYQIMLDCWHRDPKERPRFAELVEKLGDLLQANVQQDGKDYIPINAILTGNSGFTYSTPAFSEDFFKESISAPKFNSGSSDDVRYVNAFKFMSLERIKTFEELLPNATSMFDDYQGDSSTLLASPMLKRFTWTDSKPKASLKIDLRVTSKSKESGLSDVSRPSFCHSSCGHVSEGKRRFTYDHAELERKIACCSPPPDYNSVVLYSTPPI
Chain of off-target kinases (Homo sapiens, UniProt P23443) (P23443 whole entry): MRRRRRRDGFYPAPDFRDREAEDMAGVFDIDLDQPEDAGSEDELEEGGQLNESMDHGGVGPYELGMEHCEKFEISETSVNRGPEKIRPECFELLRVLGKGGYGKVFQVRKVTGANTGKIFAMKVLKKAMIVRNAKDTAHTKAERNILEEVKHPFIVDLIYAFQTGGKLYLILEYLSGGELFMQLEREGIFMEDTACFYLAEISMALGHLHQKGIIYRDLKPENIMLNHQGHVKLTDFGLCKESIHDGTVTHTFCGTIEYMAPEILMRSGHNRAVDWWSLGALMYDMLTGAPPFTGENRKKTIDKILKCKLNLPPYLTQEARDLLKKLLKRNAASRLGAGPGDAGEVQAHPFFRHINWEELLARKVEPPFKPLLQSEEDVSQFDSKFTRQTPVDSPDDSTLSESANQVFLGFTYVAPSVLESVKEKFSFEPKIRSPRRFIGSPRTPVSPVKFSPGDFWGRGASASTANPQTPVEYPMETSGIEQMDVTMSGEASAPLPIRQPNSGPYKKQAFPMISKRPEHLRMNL

For `N#Cc1cc(-c2ncnc(Nc3ccc(N4CCN(C5COC5)CC4)cc3)n2)ccc1OC1CCOCC1` [Compound 1, 5-(4-((4-(4-(oxetan-3-yl)piperazin-1-yl)phenyl)amino)-1,3,5-triazin-2-yl)-2-((tetrahydro-2H-pyran-4-yl)oxy)benzonitrile], the inhibition on off-target kinases [1] (read-out: % Inhibition 1) amounted to 37%; on off-target kinases [1] (read-out: % Inhibition 2), 36%; at off-target kinases [1] (read-out: % Inhibition Avg), 37%; at off-target kinases [2] (read-out: % Inhibition 1) it was 7%; at off-target kinases [2] (read-out: % Inhibition 2), 4%; on off-target kinases [2] (read-out: % Inhibition Avg), 6%. In addition, the inhibition at off-target kinases [3] (read-out: % Inhibition 1) stood at 11%; at off-target kinases [3] (read-out: % Inhibition 2), 9%; on off-target kinases [3] (read-out: % Inhibition Avg), 10%; at off-target kinases [4] (read-out: % Inhibition 1), 11%; at off-target kinases [4] (read-out: % Inhibition 2), 17%; at off-target kinases [4] (read-out: % Inhibition Avg) it was 14%. Besides, the inhibition on off-target kinases [5] (read-out: % Inhibition 1) worked out at 91%; on off-target kinases [5] (read-out: % Inhibition 2) it was 86%; on off-target kinases [5] (read-out: % Inhibition Avg) it was 89%; on off-target kinases [6] (read-out: % Inhibition 1) it was 58%; at off-target kinases [6] (read-out: % Inhibition 2), 60%; at off-target kinases [6] (read-out: % Inhibition Avg), 59%. Also, the inhibition on off-target kinases [7] (read-out: % Inhibition 1) turned out to be 84%; on off-target kinases [7] (read-out: % Inhibition 2) it was 81%; on off-target kinases [7] (read-out: % Inhibition Avg) it was 83%.

(Values after patent US11572590B2, “Methods for evaluating tumor cell spheroids using 3D microfluidic cell culture device” (Dana-Farber Cancer Institute, Inc., priority 2017, dated 2023).)
